Test results from publication PMC7180617, “Biological Evaluation of 3-Benzylidenechromanones and Their Spiropyrazolines-Based Analogues” (Molecules, 2020).
“And” between values parts separate entries of the source, which are not always exact repeats. Equal entries are not always repeated.

Columns and labels:
HL-60 cells [1] = assay: MTT cytotoxicity assay, HL-60; assay type: cell-based, human; conditions: MTT, 46 h + 2 h incubation
Experimental: (§1) The first stage of the study used the MTT viability test to determine the cytotoxicity of ten compounds, i.e., 3-arylidenechromanone, 3-arylideneflavanone, spirochromanone and spiro- flavanone analogues, against four human cancer cell lines: HL-60, NALM-6, WM-115 and COLO-205.
(§2) Cytotoxicity was tested against human skin melanoma cells (WM-115, ECACC, Salisbury, UK), two human leukemia cell lines, viz. promyelocytic leukemia (HL-60) and lymphoblastic leukemia (NALM-6), and human colon adenocarcinoma cells (COLO-205). The cell lines COLO-205, WM-115 and HL-60 used in this work came from the ATCC American Type Culture Collection (Manassas, VA, USA), whereas the NALM-6 cell line was purchased from the German Collection of Microorganisms and Cell Cultures (Braunschweig, Germany). The leukaemia cells and colon adenocarcinoma were cultured in RPMI 1640 medium (Invitrogen, Grand Island, NY, USA) supplemented with 10% fetal bovine serum (FBS; Invitrogen) and gentamicin (25 µg/mL; KRKA, Novo Mesto, Slovenia). For melanoma WM-115 cells, Dulbecco’s minimal essential medium (DMEM; Invitrogen) was used. All cell lines were cultured at 37 °C in a humidified atmosphere of 5% CO2 in air.
(§3) For all experiments, the studied compounds were dissolved in DMSO (Sigma-Aldrich) and were further diluted in culture medium to obtain <0.1% DMSO concentration. In each experiment, controls with and without 0.1% DMSO were performed. The cytotoxicity of all compounds and of the reference compounds 4-chromanone and 3-benzylideneflavanone was determined by the MTT assay, i.e., 3-(4,5-dimethylthiazol-2-yl)-2,5-diphenyltetrazolium bromide (Sigma, St. Louis, MO, USA), which measures cellular dehydrogenase activity. Exponentially growing cells were seeded a day before the experiment onto a 96-well microplates (Nunc, Roskilde, Denmark) at a density up to 6–8 × 10^3 cells/well (depending on the cell line). Subsequently, various concentrations of the studied compounds freshly prepared in DMSO and diluted with complete culture medium were added. All compounds were tested for their cytotoxicity at a final concentration of 10^−7–10^−3 M. After 46 h of incubation with the studied compounds, the cells were treated with the MTT reagent and incubation was continued for another two hours. MTT – formazan crystals were dissolved in 20% sodium dodecyl sulphate (SDS, Sigma-Aldrich) and 50% DMF (Sigma-Aldrich) at pH 4.7; following this, absorbance was read at 570 nm on a multifunctional Victor ELISA-plate reader (Perkin Elmer, Turku, Finland). The IC50 values, i.e., the concentration of the test compound required to reduce the cell survival fraction to 50% of controls, were calculated from concentration-response curves and used as a measure of the sensitivity of the cells to a given treatment. As a control, cultured cells were grown in the absence of drugs. The data points represent the means of at least five to ten repeats ± standard deviation (S.D.).

NALM-6 cells = assay: MTT cytotoxicity assay, NALM-6; assay type: cell-based, human; conditions: 46 h + 2 h incubation
Experimental: as §1, §2, §3

WM-115 cells = assay: MTT cytotoxicity assay, WM-115; assay type: cell-based, human; conditions: 46 h + 2 h incubation
Experimental: as §1, §2, §3

COLO-205 cells = assay: MTT cytotoxicity assay, COLO-205; assay type: cell-based, human; conditions: 46 h + 2 h incubation
Experimental: as §1, §2, §3

[2] = Lipophilicity (logP) by RP-TLC; conditions: for chromatographic logP: RP-18 F254S TLC plates
From the text: Lipophilicity is one of the most important physicochemical properties in pharmaceutical research. It can be considered a key determinant of the pharmacokinetic properties of a drug. It is commonly measured by the partition coefficient between water and n-octanol, being expressed as logP [14]. […] Knowledge of the partition coefficient is valuable: it is frequently used in structure–activity relationship (SAR) and quantitative structure–activity relationship (QSAR) studies. The experimental lipophilicity of the synthesized compounds, viz. benzylideneflavanones, benzylidenechromanones and spiropyrazolines, was determined using RP-TLC. […] It is important to examine the relationship between structure of the compound and its lipophilicity and cytotoxicity.
The RP-TLC experiments were performed on TLC plates (5 × 10 cm) RP-18 F254S (Merck, Darmstadt, Germany). The synthesized compounds were dissolved in N,N-dimethylformamide DMF (2 mg/mL). […] A DMF-water solvent system was used as mobile phase. […] All experiments were performed at room temperature. The logP parameter was calculated using the equation from the calibration curve.

erythrocytes = assay: Red blood cell morphology (phase-contrast microscopy); assay type: cell-based; conditions: 2% erythrocyte suspension, 37 °C, 1 h, phase contrast 400×
Experimental: Studies on erythrocyte morphology complement the erythrotoxicity studies because they provide information on potential immediate interactions of the tested compounds with the erythrocyte lipid bilayer, and the possibility of creating pathological forms of erythrocytes, which are not able to carry oxygen. The effects of the synthesized compounds, and the two reference compounds chromanone and flavanone, on the morphology of erythrocytes is shown in Figure 6. Briefly, 2% RBC suspension was incubated with 0.9% NaCl (control samples) or tested compounds at various concentrations corresponding to their activity towards cancer cell lines.
A 2% erythrocyte suspension was incubated at 37 °C for one hour with various concentrations of synthesized compounds. The morphology of the RBCs was examined by means of a phase contrast Opta-Tech inverted microscope, at 400× magnification, equipped with software (OptaView 7) for image analysis.

HL-60 cells [3] = assay: Cell cycle analysis by flow cytometry (propidium iodide); assay type: cell-based, human; conditions: for cell cycle, G1, mean / cell cycle, G2/M, mean / cell cycle, S, mean: mean of n=2; for cell cycle distribution, G1 / cell cycle distribution, G2 / cell cycle distribution, G2/M: HL-60, 20 h, mean ± SD, n = 2
Experimental: The next stage examined the effects of the selected compounds on cell cycle progression in HL-60 leukemia cells. […] One million HL-60 (subline CCL 240; cell type: promyeloblast) cells in 3 mL of RPMI 1640 supplemented with 20% FBS were seeded on 6-well plate. […] Fixed cells were stored in −20 °C for 2–3 days. Before analysis, cells were centrifuged (10 min, 1500 rpm, 4 °C) and washed twice with cold PBS. After the second wash, the cells were suspended in 1mL of PBS containing 100 μg of RNase A and incubated in 37 °C for 10 min. Next, 5 μL of solution of propidium iodide (1 mg/mL) was added to each sample and incubated in dark for 30 min at RT. Stained cells were analyzed by flow cytometry (FACS Calibur, BD Biosciences, San Jose, CA, USA). Data from 10,000 gated cells were collected using CellQuestPro software (Ver 6.0, Becton Dickinson) and cell cycle analysis was performed with ModFit LT software (Ver 3.2, Verity Software House, Topsham, ME, USA).

[4] = Homo sapiens, NALM-6, 48 h, MTT
[5] = Homo sapiens, WM-115, 48 h, MTT
[6] = Figure S3, HL-60, 0.5 × IC50 (µM: quercetin 29, 1 1.5, 7 18, 10 4.7, 11 4.5, 12 6)
[7] = Figure S3, HL-60, 0.5 × IC50, each of two repetitions
[8] = Figure S3, HL-60, 1 × IC50 (µM in parenthesis: quercetin 58, 1 3, 7 35, 10 9.4, 11 9, 12 12)
[9] = Figure S3, HL-60, 1 × IC50 (µM: quercetin 58, 1 3, 7 35, 10 9.4, 11 9, 12 12)
[10] = Figure S3, HL-60, 1 × IC50, each of two repetitions
[11] = 0.5 × IC50 (µM: quercetin 29, 2 1.5, 7 18, 12 6, 11 4.5, 10 4.7)
[12] = 1 × IC50 (µM: quercetin 58, 2 3, 7 35, 12 12, 11 9, 10 9.4)

| SMILES | IC50 (HL-60 cells [1]) [µM] | IC50 (NALM-6 cells; MTT) [µM] | IC50 (WM-115 cells; MTT) [µM] | IC50 (COLO-205 cells) [µM] | IC50 (HL-60 cells [1]; Homo sapiens, HL-60, 48 h) [µM] | IC50 (NALM-6 cells; [4]) [µM] | IC50 (WM-115 cells; [5]) [µM] | IC50 (COLO-205 cells; Homo sapiens, COLO 205, 48 h) [µM] | chromatographic logP [2] | erythrocyte morphology (in words) (erythrocytes) | cell cycle, G1, mean (HL-60 cells [3]; [6]) | cell cycle, G2/M, mean (HL-60 cells [3]; [6]) | cell cycle, S, mean (HL-60 cells [3]; [6]) | cell cycle, G2/M, single repetitions (HL-60 cells [3]; [7]) | cell cycle, S, single repetitions (HL-60 cells [3]; [7]) | cell cycle, G1, mean (HL-60 cells [3]; [8]) | cell cycle, G2/M, mean (HL-60 cells [3]; [9]) | cell cycle, S, mean (HL-60 cells [3]; [9]) | cell cycle, G2/M, single repetitions (HL-60 cells [3]; [10]) | cell cycle, S, single repetitions (HL-60 cells [3]; [10]) | further results |
| --- | --- | --- | --- | --- | --- | --- | --- | --- | --- | --- | --- | --- | --- | --- | --- | --- | --- | --- | --- | --- | --- |
| N.N.O=C([O-])C1(C(=O)[O-])CCC1.[Pt+2] [Carboplatin, reference compound] | 4.3 ± 1.3 | 0.7 ± 0.2 | 422 ± 50.2 | 355 ± 73.7 | – | – | – | – | – | – | – | – | – | – | – | – | – | – | – | – | logP ([2]; RP-TLC, DMF-water mobile phase, room temperature): −2.30 |
| N.N.[Cl][Pt][Cl] [Cisplatin, reference compound] | 0.8 ± 0.1 | 0.7 ± 0.3 | 18.2 ± 4.3 | 61.5 ± 3.2 | – | – | – | – | – | – | – | – | – | – | – | – | – | – | – | – | – |
| COc1ccc(/C=C2/C(=O)c3ccccc3OC2c2ccccc2)cc1 (centres unmarked) [Compound 1, (E)-3-(4-methoxybenzylidene)-2-phenylchroman-4-one] | – | – | – | – | 53.4 ± 2.49 | 49.8 ± 2.35 | 58.1 ± 4.93 | 51 ± 2.3 | 4.79 | extensive formation of echinocytes and anisocytes | 23,52% | 53,45% | 23,04% | 39,74% and 67,16% | 21,38% and 24,69% | 21,31% | 53,71% | 25,02% | 68,86% and 38,56% | 17,63% and 32,40% | – |
| O=C1/C(=C/c2ccccc2)C(c2ccccc2)Oc2ccccc21 (centres unmarked) [Compound 5, (E)-3-benzylidene-2-phenylchroman-4-one] | – | – | – | – | 33.7 ± 3.87 | 27 ± 3.1 | 47.4 ± 4.62 | 77.1 ± 1.9 | 4.9 | echinocytes accounted for the major part of erythrocytes | – | – | – | – | – | – | – | – | – | – | – |
| COc1cccc(/C=C2/C(=O)c3ccccc3OC2c2ccccc2)c1 (centres unmarked) [Compound 9, (E)-3-(3-methoxybenzylidene)-2-phenylchroman-4-one] | – | – | – | – | 35.9 ± 2.96 | 15.7 ± 6.23 | 16.9 ± 3.78 | 170 ± 3.81 | 5.83 | echinocytes accounted for the major part of erythrocytes | – | – | – | – | – | – | – | – | – | – | – |
| O=c1c(O)c(-c2ccc(O)c(O)c2)oc2cc(O)cc(O)c12 [Quercetin, reference compound] | – | – | – | – | 58 ± 4 | – | – | – | – | – | 14,26% | 60,76% | 24,99% | 60,50% and 61,01% | 23,57% and 26,40% | 11,59% | 49,04% | 39,38% | 46,07% and 52,00% | 41,15% and 37,60% | IC50 (NALM-6 cells; Homo sapiens, NALM-6, MTT): 77.1 ± 7.8 µM; IC50 (WM-115 cells; Homo sapiens, WM-115, MTT): 178 ± 21.5 µM; cell cycle, G1, single repetitions (HL-60 cells [3]; [7]): 12,59% and 15,93%; cell cycle, G1, single repetitions (HL-60 cells [3]; [10]): 12,78% and 10,40%; cell cycle distribution, G1 (HL-60 cells [3]; [11]): 14.3 ± 2.4%; cell cycle distribution, G2 (HL-60 cells [3]; [11]): 25.0 ± 2.0%; cell cycle distribution, G2/M (HL-60 cells [3]; [11]): 60.8 ± 0.4%; cell cycle distribution, G1 (HL-60 cells [3]; [12]): 11.6 ± 1.7%; cell cycle distribution, G2 (HL-60 cells [3]; [12]): 39.4 ± 2.5%; cell cycle distribution, G2/M (HL-60 cells [3]; [12]): 49.0 ± 4.2%; cells arrested in G2/M phase (HL-60 cells [3]; HL-60, concentrations of IC50 and 0.5 × IC50): 50–60% |
